Results from US20240116946A1 (Gilead Sciences, Inc., priority 2022, published 2024).
Read-outs that look alike come from different tables or passages of the source.

How the values were obtained:
SARS-CoV-2-NLuc = assay: microbe, parasite or virus in culture; assay type: cell-based, SARS Coronavirus 2
[1] = target: recombinant SARS-CoV-2 Main protease (Mpro) (Severe acute respiratory syndrome coronavirus 2 (2019-nCoV) (SARS-CoV-2), UniProt P0DTD1); assay: Cov Mpro Biochemical IC50 Assay
[2] = Severe acute respiratory syndrome coronavirus, 48 h, read-out: MPro EC50
[3] = recombinant SARS-CoV-2 Mpro 7.5 nM, fluorogenic peptide substrate 40 μM, read-out: MPro IC50
[4] = Severe acute respiratory syndrome coronavirus, 48 h; read-out: MPro EC50
[5] = recombinant SARS-CoV-2 Mpro, fluorogenic peptide substrate, read-out: MPro IC50

SMILES | EC50 (SARS-CoV-2-NLuc; [2]) | IC50 [1, 3] | IC50 [1, 5] | further results
Cn1cnc(Cn2c(=O)n(-c3cncc(C4CC4)c3)c(=O)c3sc(-c4ccccc4Cl)cc32)n1 [Example 621] | 710 nM | 495 nM | – | –
COc1cc(-c2cc3[nH]c(=O)n(-c4cncc5cccnc45)c(=O)c3s2)c(Cl)cc1F (single isomer, unassigned) [Example 1008, 6-(2-chloro-4-fluoro-5-methoxy-phenyl)-3-(1,6-naphthyridin-8-yl)-1H-thieno[3,2-d]pyrimidine-2,4-dione] | – | 128 nM | – | EC50 (SARS-CoV-2-NLuc; read-out: MPro EC50): 138 nM
O=c1[nH]c2cc(-c3ccccc3C3CC3)ccc2c(=O)n1-c1cncc2ccccc12 [Example 45] | – | – | – | EC50 (SARS-CoV-2-NLuc; [4]): 1220 nM; IC50 ([1]; MPro IC50, recombinant SARS-CoV-2 Mpro, fluorogenic peptide substrate): 1710 nM
Cn1cc(-c2cccc(Cl)c2-c2ccc3c(=O)n(-c4cncc5ccccc45)c(=O)[nH]c3c2)c(C#N)n1 [Example 267] | 35.5 nM | – | 24.1 nM | –
O=c1[nH]c2cc(-c3ccccc3Cl)sc2c(=O)n1-c1cncc2c1CCC2 [Example 107] | 71.7 nM | – | 31.8 nM | –
COc1ccc(C#N)c(-c2ccc3c(=O)n(-c4cncc5ccccc45)c(=O)[nH]c3c2)c1 [Example 308, 2-[3-(4-isoquinolyl)-2,4-dioxo-1H-quinazolin-7-yl]-4-methoxy-benzonitrile] | 31.2 nM | – | 16.2 nM | –
COc1cnc(C#N)c(-c2cc3c(s2)c(=O)n(-c2cncc4ccccc24)c(=O)n3CCC#N)c1 (single isomer, unassigned) [Example 1092, 3-(1-(2-cyanoethyl)-3-(isoquinolin-4-yl)-2,4-dioxo-1,2,3,4-tetrahydrothieno[3,2-d]pyrimidin-6-yl)-5-methoxypicolinonitrile] | – | 5.1 nM | – | EC50 (SARS-CoV-2-NLuc; read-out: MPro EC50): 11.2 nM
COc1cc(-c2cc3c(s2)c(=O)n(-c2cncnc2)c(=O)n3CCC#N)c(Cl)cc1F [Example 983] | 23.1 nM | 6.05 nM | – | –
COc1cc(-c2cc3c(s2)c(=O)n(-c2cnccc2C)c(=O)n3CCC#N)c(Cl)cc1F (single isomer, unassigned) [Example 1031, 3-[6-(2-chloro-4-fluoro-5-methoxy-phenyl)-3-(4-methyl-3-pyridyl)-2,4-dioxo-thieno[3,2-d]pyrimidin-1-yl]propanenitrile] | – | 45.6 nM | – | EC50 (SARS-CoV-2-NLuc; read-out: MPro EC50): 75.3 nM
COc1cc(-c2cc3c(s2)c(=O)n(-c2cncc4cnn(C)c24)c(=O)n3CCC#N)c(C)cc1F [Example 665] | 10.5 nM | 7.27 nM | – | –
COc1cc(-c2cc3c(s2)c(=O)n(-c2cncc4ccccc24)c(=O)n3CC#N)c(Cl)cc1F (single isomer, unassigned) [Example 633, 2-[6-(2-chloro-4-fluoro-5-methoxy-phenyl)-3-(4-isoquinolyl)-2,4-dioxo-thieno[3,2-d]pyrimidin-1-yl]acetonitrile] | – | 3.22 nM | – | EC50 (SARS-CoV-2-NLuc; read-out: MPro EC50): 3.29 nM
COc1cc(-c2cc3c(s2)c(=O)n(-c2cncc4cnn(C)c24)c(=O)n3CCC#N)c(C)cc1Cl [Example 1018] | 19.2 nM | 15 nM | – | –
COc1ccc(Cl)c(-c2cc3[nH]c(=O)n(-c4cncc5c(F)cccc45)c(=O)c3s2)c1 [Example 585] | 29.3 nM | 10.1 nM | – | –
COc1cc(-c2cc3c(s2)c(=O)n(-c2cncc4ccccc24)c(=O)n3CC2(C#N)CCC2)c(Cl)cc1F [Example 690] | 98.8 nM | 47 nM | – | –
COc1cc(-c2cc3[nH]c(=O)n(-c4cncc5nn(C)cc45)c(=O)c3s2)c(Cl)cc1F [Example 731] | 65.6 nM | 5.04 nM | – | –
O=c1[nH]c2nc(-c3ccccc3)ccc2c(=O)n1-c1cncc2ccccc12 [Example 31] | – | – | 14800 nM | EC50 (SARS-CoV-2-NLuc; [4]): > 50000 nM
COc1cc(-c2cc3[nH]c(=O)n(-c4cncc5ccc(C)nc45)c(=O)c3s2)c(Cl)cc1F [Example 461, 6-(2-chloro-4-fluoro-5-methoxyphenyl)-3-(2-methyl-1,6-naphthyridin-8-yl)thieno[3,2-d]pyrimidine-2,4(1H,3H)-dione] | – | 8.07 nM | – | EC50 (SARS-CoV-2-NLuc; [4]): 10 nM
O=c1[nH]c2cc(-c3c(Cl)cccc3-c3ccncc3F)ccc2c(=O)n1-c1cncc2ccccc12 [Example 332] | 39 nM | – | 15.3 nM | –
COc1ccc(Cl)c(-c2cc(F)c3c(=O)n(-c4cncc5ccccc45)c(=O)[nH]c3c2)c1 [Example 221] | – | – | 65.8 nM | EC50 (SARS-CoV-2-NLuc; [4]): 50.6 nM
C#Cc1cc(F)c(OC)cc1-c1cc2c(s1)c(=O)n(-c1cncc3nnn(C4CC4)c13)c(=O)n2CCC#N [Example 882] | 69.7 nM | 26.3 nM | – | –
COc1cnc(Cl)c(-c2cc3c(s2)c(=O)n(-c2cncc4nn(C)c(C)c24)c(=O)n3CCC#N)c1 [Example 1086] | 413 nM | 24.6 nM | – | –
COc1cc(-c2cc3c(s2)c(=O)n(-c2cncc4ccc(F)cc24)c(=O)n3CCC#N)c(Cl)cc1F [Example 945] | 8.65 nM | 8 nM | – | –
COc1ccc(Cl)c(-c2cc3[nH]c(=O)n(-c4cncc5ccsc45)c(=O)c3s2)c1 [Example 480] | 10.2 nM | 4.97 nM | – | –

SMILES | EC50 (SARS-CoV-2-NLuc; [2]) | IC50 [1, 3] | IC50 [1, 5] | further results
N#Cc1ccccc1-c1cc2[nH]c(=O)n(-c3cncc4ccccc34)c(=O)c2s1 [Example 530, 2-(3-(isoquinolin-4-yl)-2,4-dioxo-1,2,3,4-tetrahydrothieno[3,2-d]pyrimidin-6-yl)benzonitrile] | 84.3 nM | 12 nM | – | –
COc1ccc(C#N)c(-c2cc3[nH]c(=O)n(-c4cncc5ccc(N6CCC(F)(F)C6)cc45)c(=O)c3s2)c1 [Example 418] | 126 nM | 21.4 nM | – | –
COc1cnc(Cl)c(-c2cc3c(s2)c(=O)n(-c2cncc4ccccc24)c(=O)n3CC2(C#N)CC2)c1 [Example 759] | 4.85 nM | 5.39 nM | – | –
N#CCCn1c(=O)n(-c2cncc3ccccc23)c(=O)c2sc(-c3ccc(F)cc3Cl)cc21 [Example 827] | 10.4 nM | 10.2 nM | – | –
CC1(C)Cc2c(-c3cccc(Cl)c3-c3ccc4c(=O)n(-c5cncc6ccccc56)c(=O)[nH]c4c3)cnn2C1 [Example 190] | 16.4 nM | – | 19.7 nM | –
COc1cc(-c2cc3c(s2)c(=O)n(-c2cncc(F)c2)c(=O)n3CCC#N)c(Cl)cc1F [Example 986] | 4.39 nM | 2.37 nM | – | –
COC(=O)[C@H]1C[C@@H]1c1cncc(-n2c(=O)[nH]c3cc(-c4ccccc4Cl)sc3c2=O)c1C [Example 136] | 11100 nM | – | > 50000 nM | –
O=c1[nH]c2cc(-c3c(O)cccc3Cl)sc2c(=O)n1-c1cncc2ccccc12 [Example 8] | 108 nM | – | 31.3 nM | –
COc1cc(-c2cc3[nH]c(=O)n(-c4cncc5ccc(=O)n(C)c45)c(=O)c3s2)c(Cl)cc1F [Example 712] | 12.4 nM | 6.85 nM | – | –
COc1cnc(Cl)c(-c2cc3c(s2)c(=O)n(-c2cncc4cnn(C)c24)c(=O)n3CCC#N)c1 [Example 1019, 3-(6-(2-chloro-5-methoxypyridin-3-yl)-3-(1-methyl-1H-pyrazolo[4,3-c]pyridin-7-yl)-2,4-dioxo-3,4-dihydrothieno[3,2-d]pyrimidin-1(2H)-yl)propanenitrile] | 16.3 nM | 8.48 nM | – | –
Cc1ccc(C#N)cc1-c1cc2c(s1)c(=O)n(-c1cncc3ccccc13)c(=O)n2CCC#N [Example 810] | – | 19.8 nM | – | EC50 (SARS-CoV-2-NLuc; [4]): 86.9 nM
COc1cc(-c2cc3c(s2)c(=O)n(-c2cncc4nnn(C5CC5)c24)c(=O)n3CCC#N)c(Cl)cc1F [Example 939] | 30.3 nM | 11 nM | – | –
COc1cnc(Cl)c(-c2ccc3c(=O)n(-c4cncc5ccccc45)c(=O)[nH]c3c2)c1 [Example 257] | 1150 nM | – | 500 nM | –
COc1cnc(Cl)c(-c2cc3c(s2)c(=O)n(-c2cncc4ccccc24)c(=O)n3CCC#N)c1 (single isomer, unassigned) [Example 1088, 3-(6-(2-chloro-5-methoxypyridin-3-yl)-3-(isoquinolin-4-yl)-2,4-dioxo-3,4-dihydrothieno[3,2-d]pyrimidin-1(2H)-yl)propanenitrile] | – | 1.65 nM | – | EC50 (SARS-CoV-2-NLuc; read-out: MPro EC50): 3.27 nM
O=c1[nH]c2cc(-c3cccnc3)ccc2c(=O)n1-c1cncc2ccccc12 [Example 43] | > 50000 nM | – | 3120 nM | –
COc1cncc(-n2c(=O)[nH]c3cc(-c4ccccc4Cl)sc3c2=O)c1 [Example 378] | – | – | 304 nM | EC50 (SARS-CoV-2-NLuc; [4]): 359 nM
COc1cc(-c2cc3c(s2)c(=O)n(-c2cncc4[nH]nc(C)c24)c(=O)n3CCC#N)c(Cl)cc1F (single isomer, unassigned) [Example 959, 3-(6-(2-chloro-4-fluoro-5-methoxyphenyl)-3-(3-methyl-1H-pyrazolo[3,4-c]pyridin-4-yl)-2,4-dioxo-3,4-dihydrothieno[3,2-d]pyrimidin-1(2H)-yl)propanenitrile] | – | 5.11 nM | – | EC50 (SARS-CoV-2-NLuc; read-out: MPro EC50): 5.86 nM
N#CCCn1c(=O)n(-c2cncc(F)c2)c(=O)c2sc(-c3ccccc3C#N)cc21 [Example 864] | – | 53.2 nM | – | EC50 (SARS-CoV-2-NLuc; [4]): 150 nM
N#Cc1ccc(OC(F)F)cc1-c1ccc2c(=O)n(-c3cncc4ccccc34)c(=O)[nH]c2c1 [Example 326] | 106 nM | – | 42.5 nM | –
Cc1noc(C)c1-c1cc2c(s1)c(=O)n(-c1cncc3cnn(C)c13)c(=O)n2CCC#N [Example 930] | > 1000 nM | 541 nM | – | –
COc1ccc(Cl)c(-c2cc3[nH]c(=O)n(-c4cncc5ccc(OC)cc45)c(=O)c3s2)c1 [Example 625] | 18.1 nM | 6.91 nM | – | –
Cc1ccnc(Cl)c1-c1cc2[nH]c(=O)n(-c3cncc4ccccc34)c(=O)c2s1 [Example 290] | 484 nM | – | 159 nM | –
N#CCn1c(=O)n(-c2cncc3ccccc23)c(=O)c2sc(-c3cc(F)ccc3Cl)cc21 [Example 728] | 4.34 nM | 2.7 nM | – | –
